Consider one compound from patent publication US11564923B2, “Compounds and pharmaceutical compositions thereof for the treatment of inflammatory disorders” (Galapagos NV, priority 2017, dated 2023).

As usually defined, the IC50 is the point on the concentration scale where inhibition reaches its midpoint.

Experiment [1] concerns the target T1, Recombinant human TYK2 catalytic domain (amino acids 871-1187) (Homo sapiens, UniProt P29597).
T1 construct: catalytic domain (amino acids 871-1187)
T1 sequence (P29597 871-1187): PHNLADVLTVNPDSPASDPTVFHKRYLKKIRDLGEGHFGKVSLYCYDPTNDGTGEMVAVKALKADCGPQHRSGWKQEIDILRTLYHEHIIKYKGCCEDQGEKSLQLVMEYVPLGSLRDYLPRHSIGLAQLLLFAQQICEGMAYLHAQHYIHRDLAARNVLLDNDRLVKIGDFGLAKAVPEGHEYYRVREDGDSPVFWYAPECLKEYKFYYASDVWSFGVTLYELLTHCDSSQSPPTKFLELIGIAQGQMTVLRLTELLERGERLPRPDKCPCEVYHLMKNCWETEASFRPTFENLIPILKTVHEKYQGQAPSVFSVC
Briefly: TYK2 ADPglo kinase assay. Also: 12 µM ATP. The format is biochemical. On the procedure: After 120 min at room temperature, reactions were stopped and the remaining ATP is depleted by adding 5 μL/well of ADP Glo Reagent (Promega, catalog number V912B). After 40 min at room temperature, 10 μl Kinase Detection Reagent (Kinase Detection Substrate (Promega, catalog number V914B) dissolved in Kinase Detection Buffer (Promega, catalog number V913B)) is added to convert ADP to ATP and to measure this newly synthesized ATP in a luciferase/luciferin reaction. Readout is performed after 30 min incubation at room temperature using the Envision. Kinase activity is calculated by subtracting the relative light units (RLU) obtained in the presence of a positive control inhibitor (10 μM staurosporine) from the RLU obtained in the presence of vehicle. The ability of a test compound to inhibit this activity (or percentage inhibition) is determined as:
RLU test compound=RLU determined for sample with test compound present
RLU control=RLU determined for sample with positive control inhibitor
RLU vehicle=RLU determined in the presence of vehicle
Dose dilution series were prepared for the compounds enabling the testing of dose-response effects in the TYK2 assay and the calculation of the IC50 for the compound. Each compound is routinely tested at concentration of 20 μM followed by a 1/5 serial dilution, 10 points in a final concentration of 1% DMSO. […] The data are expressed as the average IC50 from the assays.

Experiment [2] relates to IFNα activation of STAT1 in PBMC. Briefly: IFNα activation of STAT1 in PBMC. The conditions noted are these: Homo sapiens; IFNα activation of STAT1 in PBMC; average IC50; read-out: IFNα signaling inhibitory potency IC50. The format is cell-based. In outline: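 Human PBMC, with red cells lysed by NH4Cl, were pre-treated with compound for 30 min at 37 °C and 5% CO2. They were then stimulated for 30 min with recombinant human IFNα at 5 ng/mL final.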

The subject of experiment [3] is IL-12 activation of STAT4 in NK-92 cells. Briefly: IL-12 activation of STAT4 in NK-92 cells using AphaLISA SureFire technology. The format is cell-based. The settings on record: Homo sapiens, NK92; IL-12 activation of STAT4 in NK-92 cells, AlphaLISA SureFire; average IC50; read-out: IL12 pSTAT4 IC50. An outline of the steps: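 NK-92 cells, starved of rhIL-2 overnight, were stimulated with rhIL-12 for 30 min at 37 °C with test compounds, then lysed. Phospho-STAT4 (Tyr693) was read by AlphaLISA SureFire. Percent inhibition versus the vehicle-plus-trigger signal was fitted by sigmoidal nonlinear regression to give IC50, averaged over experiments.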
(In general: Alpha assays give light when donor and acceptor beads are brought close together.)

Experiment [4] relates to IFNα stimulation, Phospho-STAT1 on CD4+ cells in human whole blood. Briefly: Human whole blood assay (hWBA), IFNα stimulation. The format is cell-based. The conditions noted are these: Universal type I IFN 1000 U/mL, pSTAT1 on CD4+ cells, read-out: IFN α IC50. How it is done:
(§1) A flow cytometry analysis is performed to establish JAK1 and TYK2 compound potency ex vivo using human whole blood. Therefore, blood is taken from human volunteers who gave informed consent, then equilibrated for 30 min at 37° C. under gentle rocking and aliquoted in Eppendorf tubes. Compound is added at different concentrations and incubated at 37° C. for 30 min under gentle rocking and subsequently stimulated for 20 min at 37° C. under gentle rocking with interleukin 6 (IL-6) for JAK-dependent pathway stimulation or IFNα for TYK2-dependent pathway stimulation. Phospho-STAT1 is then evaluated using FACS analysis.
(§2) The remaining diluted Lyse/Fix buffer is discarded.
(§3) A 3-fold dilution series of the compound is prepared in DMSO (10 mM stock solution). Control-treated samples received DMSO instead of compound. All samples are incubated with a 1% final DMSO concentration.
Human blood is collected in heparinized tubes. The blood is divided in aliquots of 148.5 μL. Then, 1.5 μL of the test compound dilution is added to each blood aliquot and the blood samples are incubated for 30 min at 37° C. under gentle rocking. One and a half microliter of 10-fold diluted IL-6 stock solution or Universal type 1 IFN is added to the blood samples (final concentration 10 ng/mL and 1000 U/mL, respectively) and samples are incubated at 37° C. for 20 min under gentle rocking.
At the end of the stimulation period, 3 mL of 1× pre-warmed Lyse/Fix buffer is immediately added to the blood samples, vortexed briefly and incubated for 15 min at 37° C. in a water bath in order to lyse red blood cells and fix leukocytes.
Tubes are centrifuged for 5 min at 400×g at 4° C. The cell pellet is washed with 3 mL of cold 1×PBS, and after centrifugation the cell pellet is resuspended in 100 μL of ice-cold 1×PBS and 900 μL ice-cold 100% MeOH is added. Cells are then incubated at 4° C. for 30 min for permeabilization.
Permeabilized cells are then washed with 1×PBS containing 3% BSA and finally resuspended in 80 μL of 1×PBX containing 3% BSA.
(§4) Cells are then washed once with 1×PBS and analyzed on a FACSCanto II flow cytometer (BD Biosciences).
(§5) 50,000 total events are counted and Phospho-STAT1 positive cells are measured after gating on CD4+ cells, in the lymphocyte gate.

For experiment [5], the system named is IL-6 stimulation, Phospho-STAT1 on CD4+ cells in human whole blood. Briefly: Human whole blood assay (hWBA), IL-6 stimulation. The format is cell-based. The settings on record: IL-6 10 ng/mL, pSTAT1 on CD4+ cells, read-out: IL6 IC50. How it is done: as §1, §2, §3
Human blood is collected in heparinized tubes. The blood is divided in aliquots of 148.5 μL. Then, 1.5 μL of the test compound dilution is added to each blood aliquot and the blood samples are incubated for 30 min at 37° C. under gentle rocking. […]
as §4, §5

The structures appear in SMILES notation.

With `Cc1cc(C#N)ncc1Oc1cc(Nc2ccc(C(=O)N3CCN(C)CC3)nn2)c2ncn(C)c2n1` [Compound 150, 4-methyl-5-[3-methyl-7-[[6-(4-methylpiperazine-1-carbonyl)pyridazin-3-yl]amino]imidazo[4,5-b]pyridin-5-yl]oxypyridine-2-carbonitrile], the concentration for half-maximal inhibition (IC50) in experiment [1] was found to be 1.1 nM; in experiment [2], 278 nM; in experiment [3] it was 1020 nM; in experiment [4], 269 nM; in experiment [5], 6810 nM.
